# Laboratory results: a melting point compilation (Tetko et al.; mined from patent text by program, amines drawn as free bases though some values may be those of a salt)
row,melting point,Compound
1,186 °C,O=C1c2ccccc2C(=O)N1OS(=O)(=O)c1ccccc1
2,92 to 100 °C,CC1CC(N)=C(C#N)C1C (stereo not drawn)
3,63 to 65 °C,CC(C)(C#N)c1ccc(Cl)nc1
4,65 to 69 °C,BrC1=Cc2ccccc2Nc2ccccc21
5,137 to 138 °C,Cc1c(C)c(N2CCN(c3ccc(F)cc3)CC2)c(C)c2c1OC(C)C2 (stereo not drawn)
6,183 to 184 °C,COc1ccc(OC)c2c1C[C@](O)(C1(C)OCCO1)CC2=O
7,170 to 175 °C,Nc1ccc(Cl)cc1C(=O)c1ccc(O)cc1
8,112 to 114 °C,O=C(c1ccccc1)c1ccccc1NC(=O)C(Cl)Cl
9,191 to 194 °C,CCS(=O)(=O)N(c1cc(-c2ncnc(C(F)(F)F)c2Cl)c(F)cc1C#N)S(=O)(=O)CC
10,108 to 110 °C,COc1ccc(/C(=C\C(=O)N2CCNCC2)c2ccccc2Cl)cc1
11,93 to 98 °C,Cc1cc(N)cnc1-c1ccccc1
12,209 to 210 °C,CCn1c2c(c3ccc(OC)cc31)CN(C(=O)c1ccc(C)c3ccccc13)CC2
13,222 to 226 °C,Cc1c[nH]c2c(=O)n(CC(=O)N[C@H](C=O)CC(=O)O)cnc12
14,< 295 °C,CC(=O)Cn1cnc2c1c(=O)[nH]c(=O)n2C
15,36 to 39 °C,CCCCCCCCCCCCCCCSCCCO
16,138 to 140 °C,COC(=O)C1(C)CC(C(=O)Nc2ccc(Cl)cc2)=NN1c1ccc(Cl)cc1 (stereo not drawn)
17,171 to 172 °C,COc1cc(/C=C2/C(=O)OC[C@H]2Cc2cc(OC)c(OCc3ccc([N+](=O)[O-])cc3)c(OCc3ccc([N+](=O)[O-])cc3)c2)cc(OC)c1OC
18,101 °C,CC(C(=O)c1ccccc1)(c1ccccc1)c1ccccc1Sc1ccccc1C(C)(C(=O)c1ccccc1)c1ccccc1 (stereo not drawn)
19,59 to 61 °C,CCCC(=O)OC[C@H]1O[C@@H](n2ccc(OCC)nc2=O)CS1 (relative stereo)
20,120 °C,O=S(=O)(c1ccc(Cl)c(CBr)c1Cl)N1CC[C@H](O)C1
21,130 to 131 °C,COc1ccc(-c2ccc(Br)cc2[N+](=O)[O-])cc1
22,126 to 128 °C,CCC(CC)C(c1ccnn1-c1ccccc1)N(C)S(=O)(=O)c1ccc(Cl)s1 (stereo not drawn)

row,melting point,Compound
1,83 to 86 °C,COC(=O)C1=C(SC)N(c2ccc(Cl)cc2Cl)CCC1
2,192 to 193 °C,CCOC(=O)C(=O)Nc1cccc(-c2nnn[nH]2)c1
3,57 to 58 °C,CCCCCCCCCCCCNC(=O)c1cc(-c2cccc(OC)c2)c(OCC(=O)O)c(-c2cccc(OC)c2)c1
4,239 to 241 °C,CN1C(=O)N(c2cc(Cl)cc(Cl)c2)C(=O)/C1=C\c1ccc(C#N)cc1
5,189 to 191 °C,Cc1ccc(Sc2ccccc2C(=O)O)c([N+](=O)[O-])c1
6,151 to 153 °C,COc1ccc(C[C@@H](CO)NC(=O)c2ccnc(Br)c2)cc1OC
7,248 °C,COc1cc(CN2C(=O)CN(C)C2=O)cc(OC)c1-c1ccc(C[C@H](NC(=O)c2c(Cl)cccc2Cl)C(=O)O)cc1
8,310 to 330 °C,Cc1c(-c2cccc(F)c2)sc2nc(N)[nH]c(=O)c12
9,216 to 217 °C,COc1cc2c(Nc3ccc(Cl)cc3F)ncnc2cc1OCCCC(=O)N1CCOCC1
10,190 to 192 °C,COc1ccc(NS(=O)(=O)c2ccc(OC)c3c2c2ccccc2n3C=O)cc1
11,155 to 165 °C,O=C(Oc1ccccc1)N1Cc2ccccc2C(c2ccccc2)c2ccccc21 (stereo not drawn)
12,98 to 99 °C,CC(=O)OCc1nc(C#N)cc(OCc2ccccc2)c1OCc1ccccc1
13,88 to 89 °C,CC(C)(C)OC(=O)Nc1cccc(C(=O)OCOC(=O)C(C)(C)C)c1
14,59 to 62 °C,O=C(CC[N+](=O)[O-])c1ccccc1
15,161 °C,CCCC1Cc2c3c(c(C)c(C)c2C1=O)OC(C(=O)O)C3 (stereo not drawn)
16,> 230 °C,CN1C(=O)C(=Cc2cc(C(C)(C)C)c(O)c(C(C)(C)C)c2)SC1=S
17,289 to 290 °C,COc1cccc(/C=C/c2nc3c([nH]2)c(=O)n(C)c(=O)n3C)c1OC
18,66 to 68 °C,CCOC(=O)c1ccc(CCCOCCCCCCNCC(O)c2cc(Cl)c(N)c(Cl)c2)cc1 (stereo not drawn)
19,235 to 237 °C,Cc1ccc(-c2ccc(C(=O)Nc3ccc4cc(CN5C(C)(C)CCCC5(C)C)ccc4c3)cc2)cc1
20,130 to 131 °C,CCCCc1nc2c(N)nc(C)c(C)c2n1CCCCNS(=O)(=O)N(C)C
21,250 to 252 °C,CCN(CC)Cc1ccc(CN2C(=O)COc3c(C)cc(C=C4SC(=S)NC4=O)cc32)cc1
22,140 to 143 °C,CCCN(c1ccncc1)N1C(=O)Cc2ccccc21

row,melting point,Compound
1,134 °C,CCCCc1nc2ccnc(Cl)c2n1Cc1ccc(-c2ccccc2C#N)cc1
2,100 °C,Cc1ccc(COC(=O)C(=O)OCc2ccc(C)cc2)cc1
3,232 to 235 °C,O=P(O)(O)C(F)(F)c1ccc(CN(c2ccc(Cl)c(Cl)c2)c2nnc(-c3cccc(Oc4cccc(-c5nnn[nH]5)c4)c3)s2)cc1Br
4,186 to 191 °C,C[C@@H](C(=O)Nc1ccc(-n2nc(C(F)(F)F)cc2C2CC2)cc1)n1nnc2cccnc21
5,262 to 265 °C,CCOC(=O)c1c(C2CCN(C)CC2)[nH]c(-c2ccc(F)c(F)c2)c1-c1ccncc1
6,146 °C,CC(C)(C)c1cccc(S(=O)(=O)n2c(Cc3cccc(C(=O)O)c3)cc3cc(C(F)(F)F)ccc32)c1
7,114 to 116 °C,c1ccc(Oc2ccc(NC3=NN(c4ccccc4)CC3)cc2)cc1
8,252 to 255 °C,Cc1n[nH]c2c1C(=O)CC(c1ccccc1O)C2 (stereo not drawn)
9,93 to 94 °C,CCOC(=O)Oc1ccc(/C=C(\C)c2ccc3c(c2)SC(C)(C)S3)cc1
10,125 to 127 °C,CCCCOc1ccc(C(C)NC(=O)NO)cc1 (stereo not drawn)
11,127 to 132 °C,COc1ccccc1Oc1c(Cl)nc(-c2cccc(OCc3ccccc3)c2)nc1Cl
12,197 to 200 °C,N#Cc1c(Sc2ncc([N+](=O)[O-])s2)nsc1Sc1ncc([N+](=O)[O-])s1
13,165 to 166 °C,CC(=O)OC1=C(C(=O)c2ccc(C)cc2)C(c2ccc(OC(F)(F)F)cc2)N(c2ccc(C)nn2)C1=O (stereo not drawn)
14,200 to 202 °C,O=[N+]([O-])c1ccc2sc3ccc(F)cc3c2c1
15,176 to 178 °C,CC(c1oc2ccccc2c(=O)c1-c1ccccc1)n1nc(-c2ccc3cn[nH]c3c2)c2c(N)ncnc21 (stereo not drawn)
16,118 to 119 °C,COC(=O)c1cc(-c2ccc(OC)c(OC)c2)nn(CC=Cc2ccc(Cl)cc2)c1=O
17,203 to 205 °C,CC(C)c1cccc(C(C)C)c1NC(=O)C1CC(c2ccc(F)cc2)OC1=O (stereo not drawn)
18,113 to 115 °C,COC(=O)Cc1c(C)ncnc1Oc1cccc(-c2ccccc2)c1
19,75 to 78 °C,CCOC(=O)c1c(C)nc(NN)c2nnn(CC)c12
20,163 °C,CCOc1nn(C(=O)NS(=O)(=O)c2c(C(=O)OC)csc2C)c(=O)n1C
21,178 to 180 °C,Cc1ccccc1C(CCC(=O)O)Oc1cc(OCc2ccsc2)ccc1C(=O)NC(Cc1ccccc1)C(=O)O (stereo not drawn)

row,Compound,melting point
1,COc1ccc(OC)c2c1C[C@@H](O)[C@H](NC(C)C)C2 (relative stereo),144 to 145 °C
2,COP(=S)(OC)Oc1nc(OCc2ccccc2)sc1C#N,47 °C
3,CN1CC2CC1CN2c1cncc(Cl)n1 (stereo not drawn),125 to 126 °C
